One experiment concerns the target T1, 5-HT2AR (Rattus norvegicus, UniProt P14842).
T1 construct: from tissue; host or cells: frontal cortex of male Sprague-Dawley rats
In words: Radioligand binding at 5-HT2A on rat frontal cortex membranes. As to conditions: for selectivity 5-HT2A/5-HT1A: Antilog [pKi (5-HT1AR) – pKi (5-HT2AR)]; for Ki: read-out: 5-HT2A pKi ± SEM (converted). The procedure: Male Sprague–Dawley rats were decapitated and their brains removed and placed on ice. The hippocampi (for the functional 5-HT1A receptor assay) or frontal cortexes (for the competitive 5-HT2A and 5-HT2C receptor assays) were dissected and homogenized with a glass homogenizer in 30 vol. ice-cold TED buffer (50 mMTris-HCl, 1 mM EDTA, 1 mM dithiotheritol, pH 7.4). Next, the homogenate was centrifuged at 21 000g for 30 min at 4 °C. The pellet was suspended in 30 vol TED buffer (pH 7.4) and incubated in a water bath for 10 min at 37 °C to remove endogenous ligands. The suspension was centrifuged again at 21 000g for 30 min at 4 °C. The pellet was resuspended in 30 vol TED buffer (pH 7.4) and the centrifugation step was repeated. The final pellet was suspended in 10 vol 50 mM Tris-HCl (pH 7.4) and stored at −80 °C until use.[47]
The 5-HT2A assay was performed according to a previously described protocol with some modifications.[48] […] Nonspecific binding was determined in the presence of 10 μM mianserin. For the 5-HT2C assay, the frontal cortex homogenates (250 μg protein/mL) were incubated in triplicate with 1 nM [^3H]mesulergine for 60 min at 36 °C in a 50 mM Tris-HCl (pH 7.4) buffer containing 0.1% ascorbate, 10 mM MgCl2, 10 μM pargyline, 100 nM spiperone, and increasing concentrations (10^–10–10^–5 M) of the compound tested. After incubation, the reaction mixture was deposited onto UniFilter-96 GF/B plates, with the aid of a FilterMate-96 Harvester. The filter plates were presoaked with 0.4% PEI for 1 h. Next, each filter well was washed with 1.75 mL of 50 mM Tris-HCl (pH 7.4) and left to dry on a heating block set to 50 °C for 2 h. Then, 45 μL of Microscint-20 scintillation fluid was added to each filter well and left to equilibrate overnight. The filter-bound radioactivity was counted in a MicroBeta^2 Microplate Counter. Curves were fitted with a one-site sigmoidal dose–response equation and pKi for each compound was calculated with the Cheng-Pursoff equation. Results were analyzed with one-way ANOVA followed by the Bonferroni’s posthoc test. The results are expressed as means ± SEM of three independent experiments.

Another experiment has as its target T2, human 5-HT6 (Homo sapiens, UniProt P50406).
T2 construct: expressed in transfected cells
In words: Radioligand binding at 5-HT6 in transfected HEK293 cells. As to conditions: for selectivity 5-HT6/5-HT1A: Antilog [pKi (5-HT1AR) – pKi (5-HT6R)]; for Ki: transfected HEK293 cells, [3H]-LSD, read-out: 5-HT6 pKi ± SEM (converted).

For a further experiment, the target named is T3, human 5-HT7b (Homo sapiens, UniProt P34969).
T3 construct: expressed in transfected cells
In words: Radioligand binding at 5-HT7 in transfected HEK293 cells. As to conditions: for selectivity 5-HT7/5-HT1A: Antilog [pKi (5-HT1AR) – pKi (5-HT7R)]; for Ki: transfected HEK293 cells, [3H]-5-CT, read-out: 5-HT7 pKi ± SEM (converted).

A further experiment concerns the target T4, 5-HT1AR (Rattus norvegicus, UniProt P19327).
T4 construct: from tissue; hippocampus per the main-text methods
T4 sequence (P19327 1-422): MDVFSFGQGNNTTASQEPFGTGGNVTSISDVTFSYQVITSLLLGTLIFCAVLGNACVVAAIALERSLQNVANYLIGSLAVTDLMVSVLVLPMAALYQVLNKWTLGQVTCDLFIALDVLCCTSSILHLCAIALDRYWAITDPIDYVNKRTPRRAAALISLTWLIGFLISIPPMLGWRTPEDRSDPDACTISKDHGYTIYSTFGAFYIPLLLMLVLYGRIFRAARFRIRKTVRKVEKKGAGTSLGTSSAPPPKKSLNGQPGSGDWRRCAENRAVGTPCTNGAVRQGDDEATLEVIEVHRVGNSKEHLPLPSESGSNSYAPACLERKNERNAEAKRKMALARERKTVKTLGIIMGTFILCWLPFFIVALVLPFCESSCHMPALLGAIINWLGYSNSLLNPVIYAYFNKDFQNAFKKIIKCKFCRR
In words: Effect of WAY100635 on compound-stimulated [35S]GTPγS binding (Tables SI-1, SI-2). As to conditions: for Emax: basal set to 100%; for EC50: rat frontal cortex homogenates, read-out: pEC50 ± SEM, compound alone (converted); for shift ratio: with WAY100635 10^-7 M vs agonist alone. It is filed as biochemical. On the procedure: The [^35S]GTPγS assay was performed according to the method described previously.[49] […] Nonspecific binding was determined with 100 μM of unlabeled GTPγS. The reaction mixture was incubated for 90 min at 36 °C in a volume of 250 μL. […] Next, 96-well Unifilter Plates (PerkinElmer, USA) were presoaked for 1 h with 50 mM Tris-HCl (pH = 7.4) before harvesting. The reaction was terminated by vacuum filtration onto filter plates with the Filter Mate Harvester (PerkinElmer, USA). The samples were then rapidly washed with 2 mL of 50 mM Tris-HCl (pH = 7.4) buffer. The filter plates were dried for 2 h at 50 °C. After drying, 45 μL of EcoScint-20 scintillant (PerkinElmer, USA) was added to every well. The radioactivity was counted in a Trilux MicroBeta^2 counter (PerkinElmer, USA). The data were analyzed with GraphPad Prism 5.0 software (GraphPad Software, San Diego California USA, www.graphpad.com). To determine whether compound-stimulated [^35S]GTPγS binding involved 5-HT1A receptors, two protocols were used. […]
WAY).) Results were expressed as means ± SEM. Curves were fitted with a one-site sigmoidal dose-response equation […]
calculated as the ratio of pEC50 in the presence of WAY100635 divided by the pEC50 of agonist alone. Basal 5-HT1AR activation was set to 100%. Results were analyzed with one-way ANOVA followed by the Bonferroni’s post-hoc test. […]
WAY100635 (10^-10 M - 10^-5 M, WAY). Results were expressed as means ± SEM. Curves were fitted with a one-site sigmoidal dose-response equation and Emax (%) of the EC80 agonist concentration alone and in the presence of WAY100635 were determined from 2 independent experiments. Basal (no ligand added) [35S]GTPγS binding was set to 100%. Results were analyzed with one-way ANOVA followed by the Bonferroni’s post-hoc test.
For orientation: Binding of GTPγS marks nucleotide exchange on a G protein.

[1] abbreviates: Table SI-1, read-out: Emax (%) ± SEM, compound alone.
The mark [2] stands for this setting: Table SI-2, read-out: Emax (%) ± SEM of EC80 agonist concentration alone.

The record followed here is paper PMC8016166, “Identification of a Potent and Selective 5-HT1A Receptor Agonist with In Vitro and In Vivo Antinociceptive Activity” (ACS Chemical Neuroscience, 2020).

Where two headings read alike, the source gives them in different places.

T3 sequence (P34969 1-432): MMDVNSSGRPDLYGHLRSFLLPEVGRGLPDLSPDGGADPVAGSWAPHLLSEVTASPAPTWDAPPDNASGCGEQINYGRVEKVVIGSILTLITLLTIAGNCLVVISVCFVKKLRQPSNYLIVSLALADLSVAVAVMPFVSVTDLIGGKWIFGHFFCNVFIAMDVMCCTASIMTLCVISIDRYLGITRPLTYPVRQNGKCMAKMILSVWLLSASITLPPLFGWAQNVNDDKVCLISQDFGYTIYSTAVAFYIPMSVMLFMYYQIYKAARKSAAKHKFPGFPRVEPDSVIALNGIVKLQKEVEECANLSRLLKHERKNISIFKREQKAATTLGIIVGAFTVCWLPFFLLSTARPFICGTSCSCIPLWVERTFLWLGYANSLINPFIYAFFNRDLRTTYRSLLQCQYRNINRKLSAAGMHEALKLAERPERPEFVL
T2 sequence (P50406 whole entry): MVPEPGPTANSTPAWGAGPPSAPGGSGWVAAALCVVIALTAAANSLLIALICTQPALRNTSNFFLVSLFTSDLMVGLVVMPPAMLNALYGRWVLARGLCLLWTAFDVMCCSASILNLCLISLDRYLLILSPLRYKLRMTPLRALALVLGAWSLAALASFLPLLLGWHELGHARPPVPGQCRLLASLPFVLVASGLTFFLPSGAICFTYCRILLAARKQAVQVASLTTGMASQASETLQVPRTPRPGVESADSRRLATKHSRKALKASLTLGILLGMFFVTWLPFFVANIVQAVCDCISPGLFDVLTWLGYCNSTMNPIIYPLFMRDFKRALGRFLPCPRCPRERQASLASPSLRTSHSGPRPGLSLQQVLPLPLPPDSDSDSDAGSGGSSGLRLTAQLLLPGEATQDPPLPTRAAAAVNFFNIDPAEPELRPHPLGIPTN
T1 sequence (P14842 whole entry): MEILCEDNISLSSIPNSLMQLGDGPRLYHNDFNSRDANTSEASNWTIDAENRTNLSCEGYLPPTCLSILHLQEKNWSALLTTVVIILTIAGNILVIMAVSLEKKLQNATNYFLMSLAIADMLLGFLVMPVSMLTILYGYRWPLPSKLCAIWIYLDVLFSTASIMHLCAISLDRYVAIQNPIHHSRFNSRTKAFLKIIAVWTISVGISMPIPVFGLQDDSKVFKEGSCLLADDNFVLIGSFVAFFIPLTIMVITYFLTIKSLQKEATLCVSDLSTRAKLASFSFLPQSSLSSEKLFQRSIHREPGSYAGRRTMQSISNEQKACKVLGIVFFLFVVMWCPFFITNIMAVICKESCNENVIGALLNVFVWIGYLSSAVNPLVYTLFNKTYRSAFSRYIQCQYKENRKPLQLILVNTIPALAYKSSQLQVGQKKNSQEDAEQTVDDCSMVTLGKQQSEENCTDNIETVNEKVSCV

With `c1ccc(C2(c3ccccc3)OCC(CNCCOc3ccccc3-c3ccncc3)O2)cc1` (racemic) [rac-1, N-[(2,2-diphenyl-1,3-dioxolan-4-yl)methyl]-2-[2-(pyridin-4-yl)phenoxy]ethan-1-ammonium hydrogenoxalate], at 5-HT2AR, the “selectivity 5-HT2A/5-HT1A” value is given as 123 and the Ki was 1.12 µM. Besides, on human 5-HT6, the “selectivity 5-HT6/5-HT1A” value was found to be 832 and the Ki is 7.59 µM. For the same compound, at human 5-HT7b, the “selectivity 5-HT7/5-HT1A” value is reported as 56 and the Ki was 0.513 µM. Further, the Emax at 5-HT1AR (setting [1]) is 151 ± 4.2%. Besides, at 5-HT1AR (Table SI-1), the EC50 was 0.1 µM and the shift ratio came out at 6.3. For the same compound, the Emax on 5-HT1AR (setting [2]) was determined as 138 ± 28.4%.
As for `Cn1cncc1-c1ccccc1OCCNCC1COC(c2ccccc2)(c2ccccc2)O1` (racemic) [rac-2, N-((2,2-diphenyl-1,3-dioxolan-4-yl)methyl)-2-(2-(1-methyl-1H-imidazol-5-yl)phenoxy)ethan-1-ammonium hydrogenoxalate], on 5-HT2AR, the “selectivity 5-HT2A/5-HT1A” value came out at 56 and the Ki is 0.417 µM. Besides, at human 5-HT6, the “selectivity 5-HT6/5-HT1A” value was 676 and the Ki is 5.01 µM. In addition, at human 5-HT7b, the “selectivity 5-HT7/5-HT1A” value came out at 89 and the Ki is 0.661 µM. Besides, the Emax on 5-HT1AR (setting [1]) amounted to 184 ± 2.7%. In addition, on 5-HT1AR (Table SI-1), the EC50 was 0.0398 µM and the shift ratio worked out at 31.6. The Emax on 5-HT1AR (setting [2]) was 158 ± 24.6%.
In the case of `c1ccc(C2(c3ccccc3)OC[C@@H](CNCCOc3ccccc3-c3ccncc3)O2)cc1` [(R)-1, N-[(2,2-Diphenyl-1,3-dioxolan-4-yl)methyl]-2-[2-(pyridin-4-yl)phenoxy]ethan-1-ammonium hydrogenoxalate], on 5-HT2AR, the “selectivity 5-HT2A/5-HT1A” value is given as 355 and the Ki was 1.58 µM. Moreover, at human 5-HT6, the “selectivity 5-HT6/5-HT1A” value turned out to be 955 and the Ki was 4.27 µM. Further, on human 5-HT7b, the “selectivity 5-HT7/5-HT1A” value came out at 112 and the Ki was 0.501 µM. The Emax on 5-HT1AR (setting [1]) is 158 ± 5.9%. Besides, at 5-HT1AR (Table SI-1), the EC50 was 0.0631 µM and the shift ratio was 10.0. Also, the Emax at 5-HT1AR (setting [2]) came to 149 ± 35.1%.
Take `Cn1cncc1-c1ccccc1OCCNC[C@@H]1COC(c2ccccc2)(c2ccccc2)O1` [(R)-2, N-((2,2-Diphenyl-1,3-dioxolan-4-yl)methyl)-2-(2-(1-methyl-1H-imidazol-5-yl)phenoxy)ethan-1-ammonium hydrogenoxalate]: at 5-HT2AR, the “selectivity 5-HT2A/5-HT1A” value turned out to be 74 and the Ki was 0.891 µM. Further, at human 5-HT6, the “selectivity 5-HT6/5-HT1A” value is reported as 417 and the Ki is 5.01 µM. Moreover, on human 5-HT7b, the “selectivity 5-HT7/5-HT1A” value turned out to be 66 and the Ki was 0.794 µM. Besides, the Emax at 5-HT1AR (setting [1]) turned out to be 143 ± 3.6%. At 5-HT1AR (Table SI-1), the EC50 is 0.0631 µM and the shift ratio was determined as 19.9. In addition, the Emax on 5-HT1AR (setting [2]) was 140 ± 18.8%.
Consider `c1ccc(C2(c3ccccc3)OC[C@H](CNCCOc3ccccc3-c3ccncc3)O2)cc1` [(S)-1, N-[(2,2-Diphenyl-1,3-dioxolan-4-yl)methyl]-2-[2-(pyridin-4-yl)phenoxy]ethan-1-ammonium hydrogenoxalate], for which, at 5-HT2AR, the “selectivity 5-HT2A/5-HT1A” value is on record as 85 and the Ki is 0.794 µM. In addition, on human 5-HT6, the “selectivity 5-HT6/5-HT1A” value is on record as 347 and the Ki is 3.24 µM. At human 5-HT7b, the “selectivity 5-HT7/5-HT1A” value is recorded as 43 and the Ki is 0.398 µM. The Emax at 5-HT1AR (setting [1]) was found to be 138 ± 2.9%. For the same compound, at 5-HT1AR (Table SI-1), the EC50 is 0.0158 µM and the shift ratio is 39.8. For the same compound, the Emax at 5-HT1AR (setting [2]) amounted to 134 ± 24.5%.
Turning to `Cn1cncc1-c1ccccc1OCCNC[C@H]1COC(c2ccccc2)(c2ccccc2)O1` [(S)-2, N-((2,2-Diphenyl-1,3-dioxolan-4-yl)methyl)-2-(2-(1-methyl-1H-imidazol-5-yl)phenoxy)ethan-1-ammonium hydrogenoxalate], on 5-HT2AR, the “selectivity 5-HT2A/5-HT1A” value was determined as 245 and the Ki was 1 µM. In addition, at human 5-HT6, the “selectivity 5-HT6/5-HT1A” value worked out at 1349 and the Ki is 5.5 µM. In addition, at human 5-HT7b, the “selectivity 5-HT7/5-HT1A” value amounted to 148 and the Ki is 0.603 µM. For the same compound, the Emax at 5-HT1AR (setting [1]) turned out to be 175 ± 2.7%. Further, at 5-HT1AR (Table SI-1), the EC50 is 0.0251 µM and the shift ratio is listed as 25.1. Moreover, on 5-HT1AR (setting [2]), the Emax came out at 156 ± 21.7%.
